Active and inactive are the calls of the source.

21 compounds from ChEMBL document CHEMBL1201862, “PubChem BioAssay data set” (2004) can be followed below.

A short description of assay [1]: Trypanosoma cruzi growth suppression in host cells – NIH3T3 host cells, beta-gal luminescence, confirmation (AID 2044).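 Note: intracellular parasites grown in NIH/3T3 mouse fibroblasts as host cells; luminescent beta-galactosidase reporter signal from transgenic T. cruzi replicating inside host cells; inhibitors lower the luminescence signal.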 Type of assay: functional, cell-based.
The nature of assay [2]: NIH3T3 cell viability loss – ATP luminescence, mouse fibroblasts, counter-screen, dose response (AID 2010).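 Note: cells exposed to compound for about 90 hours before reading.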 The format is functional, cell-based.
The nature of assay [3]: cells.
Assay [4] is described as follows: M. tuberculosis H37Rv growth inhibitors, H37Rv strain (AID 1626). The format is functional.
For assay [5], the target named is Prothrombin (Homo sapiens, UniProt P00734). Briefly: Thrombin 1536 HTS Dose Response Confirmation. [Related pubchem assays: 1046 (Thrombin 1536 HTS; hits were confirmed in this assay)]. Type of assay: functional.
The target of assay [6] is Albumin (Bos taurus, UniProt P02769). Briefly: Counterscreen for inhibitors of T-cell receptor (TCR)-CD3 interaction: Fluorescence-based biochemical high throughput dose response assay to identify inhibitors of T-cell receptor (TCR)-CD3 interaction using a TAMRA-labeled BSA probe. Type of assay: functional.
Sequence of Albumin (P02769 whole entry): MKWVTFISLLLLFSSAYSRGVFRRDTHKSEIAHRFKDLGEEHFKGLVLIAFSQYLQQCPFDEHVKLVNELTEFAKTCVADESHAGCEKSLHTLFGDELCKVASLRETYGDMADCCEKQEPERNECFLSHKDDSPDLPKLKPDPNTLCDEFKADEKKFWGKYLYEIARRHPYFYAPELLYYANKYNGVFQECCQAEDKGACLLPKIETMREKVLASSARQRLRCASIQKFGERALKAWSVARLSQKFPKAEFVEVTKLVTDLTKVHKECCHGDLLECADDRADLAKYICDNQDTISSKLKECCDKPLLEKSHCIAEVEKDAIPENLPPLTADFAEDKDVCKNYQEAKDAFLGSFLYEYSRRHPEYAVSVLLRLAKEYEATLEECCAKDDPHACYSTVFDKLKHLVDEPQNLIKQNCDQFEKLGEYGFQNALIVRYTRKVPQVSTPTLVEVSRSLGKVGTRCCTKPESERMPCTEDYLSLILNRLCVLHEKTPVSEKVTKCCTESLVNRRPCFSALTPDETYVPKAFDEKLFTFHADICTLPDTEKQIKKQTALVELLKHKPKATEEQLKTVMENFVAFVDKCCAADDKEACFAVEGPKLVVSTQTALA
The target of assay [7] is T1, High affinity choline transporter 1 (Homo sapiens, UniProt Q9GZV3).
T1 sequence (Q9GZV3 whole entry): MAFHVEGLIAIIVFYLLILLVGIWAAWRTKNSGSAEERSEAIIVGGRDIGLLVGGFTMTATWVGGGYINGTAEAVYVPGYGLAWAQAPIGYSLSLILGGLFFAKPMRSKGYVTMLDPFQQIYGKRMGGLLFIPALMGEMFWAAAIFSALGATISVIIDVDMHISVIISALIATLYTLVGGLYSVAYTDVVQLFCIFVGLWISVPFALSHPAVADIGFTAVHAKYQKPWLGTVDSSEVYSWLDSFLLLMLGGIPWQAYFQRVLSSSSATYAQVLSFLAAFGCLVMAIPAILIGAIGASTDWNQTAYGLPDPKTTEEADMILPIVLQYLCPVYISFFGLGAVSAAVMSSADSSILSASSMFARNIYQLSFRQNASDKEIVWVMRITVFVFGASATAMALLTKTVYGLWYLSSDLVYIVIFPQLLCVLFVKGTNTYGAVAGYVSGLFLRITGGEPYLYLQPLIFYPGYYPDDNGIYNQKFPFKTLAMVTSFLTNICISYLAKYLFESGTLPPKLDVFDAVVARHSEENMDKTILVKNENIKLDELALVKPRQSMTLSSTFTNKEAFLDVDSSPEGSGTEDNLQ
Briefly: human choline transporter blockers, potency – cell-based, 5-point CRC, membrane potential dye, dose response (AID 504840). The format is functional.

The target in assay [8] is T2, Fatty acid synthase (Homo sapiens, UniProt P49327). Put plainly: inhibition of human FAS-TE enzyme activity – biochemical, endpoint fluorescence intensity, uHTS hits, dose response (AID 624327).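 Note: fluorescence from hydrolysis of an O-methyl fluorescein acyl ester substrate by the enzyme.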 Type of assay: functional.
T2 sequence (P49327 whole entry): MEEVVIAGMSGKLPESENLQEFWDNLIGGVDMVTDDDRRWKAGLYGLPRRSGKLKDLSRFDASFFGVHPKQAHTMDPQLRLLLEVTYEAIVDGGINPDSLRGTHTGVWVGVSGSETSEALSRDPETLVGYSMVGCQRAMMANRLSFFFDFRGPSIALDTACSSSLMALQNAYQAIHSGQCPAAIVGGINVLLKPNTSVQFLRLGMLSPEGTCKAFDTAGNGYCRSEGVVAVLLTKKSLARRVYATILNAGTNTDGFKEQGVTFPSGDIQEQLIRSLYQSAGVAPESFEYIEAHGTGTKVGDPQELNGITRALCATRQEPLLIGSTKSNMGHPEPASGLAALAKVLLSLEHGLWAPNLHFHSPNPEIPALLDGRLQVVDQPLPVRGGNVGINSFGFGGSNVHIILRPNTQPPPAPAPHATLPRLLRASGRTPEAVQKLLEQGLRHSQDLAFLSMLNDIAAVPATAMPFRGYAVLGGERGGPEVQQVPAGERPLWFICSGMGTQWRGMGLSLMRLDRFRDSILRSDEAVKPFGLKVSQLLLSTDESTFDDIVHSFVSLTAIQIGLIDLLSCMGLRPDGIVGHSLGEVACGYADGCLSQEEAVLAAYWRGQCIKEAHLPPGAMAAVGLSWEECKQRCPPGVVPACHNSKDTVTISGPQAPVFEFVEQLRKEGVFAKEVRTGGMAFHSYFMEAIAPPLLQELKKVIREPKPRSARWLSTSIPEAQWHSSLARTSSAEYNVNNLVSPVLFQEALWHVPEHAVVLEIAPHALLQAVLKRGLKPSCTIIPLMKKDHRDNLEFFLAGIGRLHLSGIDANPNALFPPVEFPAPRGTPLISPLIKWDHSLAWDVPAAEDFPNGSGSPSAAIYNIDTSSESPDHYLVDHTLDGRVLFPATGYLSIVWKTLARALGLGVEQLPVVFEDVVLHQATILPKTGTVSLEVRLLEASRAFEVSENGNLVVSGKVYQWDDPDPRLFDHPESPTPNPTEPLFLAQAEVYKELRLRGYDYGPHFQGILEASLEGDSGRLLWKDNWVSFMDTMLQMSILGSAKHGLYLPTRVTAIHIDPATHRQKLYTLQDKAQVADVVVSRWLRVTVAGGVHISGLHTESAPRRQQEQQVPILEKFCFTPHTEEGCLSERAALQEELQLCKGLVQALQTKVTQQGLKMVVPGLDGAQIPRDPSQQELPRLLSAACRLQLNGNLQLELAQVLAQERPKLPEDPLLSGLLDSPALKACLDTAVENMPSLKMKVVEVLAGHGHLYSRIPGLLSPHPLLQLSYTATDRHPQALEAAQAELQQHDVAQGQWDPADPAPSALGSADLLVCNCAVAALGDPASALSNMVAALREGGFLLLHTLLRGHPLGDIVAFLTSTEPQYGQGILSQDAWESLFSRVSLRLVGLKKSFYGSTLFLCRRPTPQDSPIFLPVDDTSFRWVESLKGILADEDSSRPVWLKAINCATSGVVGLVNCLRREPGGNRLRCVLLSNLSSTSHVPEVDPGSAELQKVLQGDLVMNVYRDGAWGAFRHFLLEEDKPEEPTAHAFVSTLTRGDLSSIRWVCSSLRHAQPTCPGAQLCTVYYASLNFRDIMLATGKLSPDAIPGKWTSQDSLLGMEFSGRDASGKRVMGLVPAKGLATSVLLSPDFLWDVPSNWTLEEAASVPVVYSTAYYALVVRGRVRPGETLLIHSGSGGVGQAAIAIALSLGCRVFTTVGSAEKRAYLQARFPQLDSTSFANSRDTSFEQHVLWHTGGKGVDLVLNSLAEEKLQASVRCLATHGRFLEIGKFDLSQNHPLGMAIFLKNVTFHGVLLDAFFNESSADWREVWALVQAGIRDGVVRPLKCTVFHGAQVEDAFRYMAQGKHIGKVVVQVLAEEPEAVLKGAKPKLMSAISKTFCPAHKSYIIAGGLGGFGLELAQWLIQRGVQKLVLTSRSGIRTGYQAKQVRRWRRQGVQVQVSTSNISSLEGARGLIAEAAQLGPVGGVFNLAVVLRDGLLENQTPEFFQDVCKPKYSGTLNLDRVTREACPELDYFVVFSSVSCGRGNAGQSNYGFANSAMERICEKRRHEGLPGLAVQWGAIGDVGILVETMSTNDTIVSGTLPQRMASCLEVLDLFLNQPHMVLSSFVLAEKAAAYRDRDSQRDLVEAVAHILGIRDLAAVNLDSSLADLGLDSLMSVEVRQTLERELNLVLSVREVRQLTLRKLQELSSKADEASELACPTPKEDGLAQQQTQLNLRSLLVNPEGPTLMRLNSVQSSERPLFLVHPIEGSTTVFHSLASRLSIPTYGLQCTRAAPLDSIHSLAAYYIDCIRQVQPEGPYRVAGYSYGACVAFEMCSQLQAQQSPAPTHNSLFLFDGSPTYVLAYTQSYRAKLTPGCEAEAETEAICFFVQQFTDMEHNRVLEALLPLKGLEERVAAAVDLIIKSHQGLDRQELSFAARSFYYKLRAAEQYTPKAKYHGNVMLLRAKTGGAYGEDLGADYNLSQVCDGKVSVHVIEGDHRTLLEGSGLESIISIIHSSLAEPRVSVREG
The target in assay [9] is T2, Fatty acid synthase. Put plainly: inhibition of human FAS-TE enzyme activity – biochemical, kinetic fluorescence intensity, dose response (AID 624326).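 Note: rate of fluorescence rise from hydrolysis of a fluorogenic O-methyl fluorescein ester substrate.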 The format is functional.
Assay [10] deals with T3, Caspase-6 (Homo sapiens, UniProt P55212).
T3 sequence (P55212 whole entry): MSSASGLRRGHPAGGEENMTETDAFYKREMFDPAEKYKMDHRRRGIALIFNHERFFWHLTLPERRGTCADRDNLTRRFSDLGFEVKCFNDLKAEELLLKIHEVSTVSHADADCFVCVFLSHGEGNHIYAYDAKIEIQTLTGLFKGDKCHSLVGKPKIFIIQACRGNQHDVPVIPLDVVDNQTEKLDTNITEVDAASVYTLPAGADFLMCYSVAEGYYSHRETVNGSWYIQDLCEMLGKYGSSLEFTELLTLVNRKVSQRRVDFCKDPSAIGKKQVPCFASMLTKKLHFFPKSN
Briefly: inhibition of CASP6 peptide cleavage – biochemical, VEID-R110 fluorescence, cherry-pick, dose response (AID 720632).

The target in assay [11] is T4, Calpain-2 catalytic subunit (Sus scrofa, UniProt P43367).
T4 sequence (P43367 whole entry): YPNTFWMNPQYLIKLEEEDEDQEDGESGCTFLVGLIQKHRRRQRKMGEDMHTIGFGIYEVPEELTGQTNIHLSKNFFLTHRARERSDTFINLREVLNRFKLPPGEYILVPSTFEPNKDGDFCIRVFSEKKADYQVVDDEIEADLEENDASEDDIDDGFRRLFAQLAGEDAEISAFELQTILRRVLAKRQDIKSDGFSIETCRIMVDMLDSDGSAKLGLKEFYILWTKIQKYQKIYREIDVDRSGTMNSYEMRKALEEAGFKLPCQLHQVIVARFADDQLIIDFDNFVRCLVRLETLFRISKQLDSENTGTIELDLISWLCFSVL
Put plainly: m-calpain protease blockers, concentration series – biochemical, fluorogenic peptide substrate, dose response (AID 1420). The format is functional.

For assay [12], the target named is T5, Replicative DNA helicase DnaB (Mycobacterium tuberculosis, UniProt P9WMR3).
T5 sequence (P9WMR3 whole entry): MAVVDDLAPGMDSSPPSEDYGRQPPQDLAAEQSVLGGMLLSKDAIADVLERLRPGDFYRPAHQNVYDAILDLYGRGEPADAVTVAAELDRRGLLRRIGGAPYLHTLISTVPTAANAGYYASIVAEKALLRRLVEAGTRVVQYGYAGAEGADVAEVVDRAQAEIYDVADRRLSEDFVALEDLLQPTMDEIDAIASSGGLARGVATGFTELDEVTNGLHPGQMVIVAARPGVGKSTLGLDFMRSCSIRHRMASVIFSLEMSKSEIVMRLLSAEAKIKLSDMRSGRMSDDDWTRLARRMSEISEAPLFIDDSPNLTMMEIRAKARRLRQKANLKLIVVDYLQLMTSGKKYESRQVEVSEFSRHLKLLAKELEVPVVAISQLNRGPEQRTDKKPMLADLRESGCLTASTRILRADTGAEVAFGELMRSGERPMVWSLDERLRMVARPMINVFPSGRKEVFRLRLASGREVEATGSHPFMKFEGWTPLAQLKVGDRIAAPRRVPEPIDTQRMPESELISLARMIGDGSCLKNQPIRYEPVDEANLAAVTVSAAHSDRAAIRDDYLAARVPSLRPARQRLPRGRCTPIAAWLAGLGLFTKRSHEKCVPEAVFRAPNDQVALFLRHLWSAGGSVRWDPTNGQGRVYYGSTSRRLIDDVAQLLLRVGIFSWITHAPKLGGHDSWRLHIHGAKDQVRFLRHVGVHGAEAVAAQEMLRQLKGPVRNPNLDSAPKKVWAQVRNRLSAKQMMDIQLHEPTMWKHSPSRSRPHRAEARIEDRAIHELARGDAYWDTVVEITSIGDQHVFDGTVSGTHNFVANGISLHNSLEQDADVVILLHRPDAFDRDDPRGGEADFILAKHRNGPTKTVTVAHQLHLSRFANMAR
Put plainly: DnaB intein splicing inhibitors, dose response, biochemical, cell-free fluorescence (AID 449749). Type of assay: functional.

The target in assay [13] is Genome polyprotein (dengue virus type 2, UniProt P29990). Briefly: flavivirus cap methylation enzyme inhibition – biochemical, confirmation dose response, primary screen (AID 588689). Type of assay: functional.
Sequence of Genome polyprotein (P29990 2492-3391 limits assumed): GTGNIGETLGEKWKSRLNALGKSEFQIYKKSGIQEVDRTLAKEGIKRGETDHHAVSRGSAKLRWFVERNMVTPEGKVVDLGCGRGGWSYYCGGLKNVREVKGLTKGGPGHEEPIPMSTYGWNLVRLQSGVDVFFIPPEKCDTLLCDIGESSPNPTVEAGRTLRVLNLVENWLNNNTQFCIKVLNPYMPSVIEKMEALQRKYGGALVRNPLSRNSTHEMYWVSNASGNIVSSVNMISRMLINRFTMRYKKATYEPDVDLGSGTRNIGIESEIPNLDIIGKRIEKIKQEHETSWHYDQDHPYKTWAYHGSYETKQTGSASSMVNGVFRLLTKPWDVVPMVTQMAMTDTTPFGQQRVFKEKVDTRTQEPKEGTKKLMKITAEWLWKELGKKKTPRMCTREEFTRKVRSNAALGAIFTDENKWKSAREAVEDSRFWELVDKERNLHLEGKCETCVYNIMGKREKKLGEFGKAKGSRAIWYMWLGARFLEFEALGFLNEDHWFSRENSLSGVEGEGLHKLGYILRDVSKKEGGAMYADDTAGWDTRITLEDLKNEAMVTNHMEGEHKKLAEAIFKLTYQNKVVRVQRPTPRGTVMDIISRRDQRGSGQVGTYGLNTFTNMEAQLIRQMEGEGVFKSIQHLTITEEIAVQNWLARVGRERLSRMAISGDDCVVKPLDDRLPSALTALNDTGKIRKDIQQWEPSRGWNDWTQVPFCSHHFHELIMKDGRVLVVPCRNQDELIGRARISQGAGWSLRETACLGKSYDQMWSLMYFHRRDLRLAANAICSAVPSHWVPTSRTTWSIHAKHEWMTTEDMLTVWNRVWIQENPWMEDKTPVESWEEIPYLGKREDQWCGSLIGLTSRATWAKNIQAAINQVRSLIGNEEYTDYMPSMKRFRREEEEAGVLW
The target in assay [14] is T6, Protein RecA (Mycobacterium tuberculosis, UniProt P9WHJ3).
T6 sequence (P9WHJ3 whole entry): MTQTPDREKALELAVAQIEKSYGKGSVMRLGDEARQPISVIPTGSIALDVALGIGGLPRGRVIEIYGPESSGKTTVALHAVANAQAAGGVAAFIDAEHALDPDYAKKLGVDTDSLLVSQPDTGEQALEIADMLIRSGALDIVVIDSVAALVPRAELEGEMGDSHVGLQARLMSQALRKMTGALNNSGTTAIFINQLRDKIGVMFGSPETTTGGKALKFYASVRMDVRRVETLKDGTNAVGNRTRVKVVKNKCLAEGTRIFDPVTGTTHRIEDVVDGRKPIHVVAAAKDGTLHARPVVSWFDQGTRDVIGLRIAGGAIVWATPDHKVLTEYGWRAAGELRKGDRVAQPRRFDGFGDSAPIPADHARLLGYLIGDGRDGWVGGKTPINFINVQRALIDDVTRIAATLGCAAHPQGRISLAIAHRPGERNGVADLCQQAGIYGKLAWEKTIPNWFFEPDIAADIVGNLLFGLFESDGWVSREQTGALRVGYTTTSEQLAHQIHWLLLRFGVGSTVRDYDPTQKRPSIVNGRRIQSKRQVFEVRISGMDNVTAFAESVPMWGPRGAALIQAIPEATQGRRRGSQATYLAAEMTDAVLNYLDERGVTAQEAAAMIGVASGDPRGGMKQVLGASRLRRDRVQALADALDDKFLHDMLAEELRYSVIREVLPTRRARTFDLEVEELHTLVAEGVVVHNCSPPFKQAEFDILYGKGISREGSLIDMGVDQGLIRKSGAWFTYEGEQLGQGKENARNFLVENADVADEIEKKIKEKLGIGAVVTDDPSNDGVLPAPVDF
Briefly: Fluorescence Cell-Free Homogeneous Dose Retest to Identify Inhibitors of RecA-Intein Splicing Activity. [Related pubchem assays (depositor defined):AID2097, AID2223, AID489010, AID492950]. The format is functional.

For assay [15], the target named is Large T antigen (Simian virus 40, UniProt P03070). The format is functional, Betapolyomavirus macacae.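 Note: Confirmatory-stage PubChem screen for compounds that inhibit SV40 T antigen.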
Sequence of Large T antigen (P03070 whole entry): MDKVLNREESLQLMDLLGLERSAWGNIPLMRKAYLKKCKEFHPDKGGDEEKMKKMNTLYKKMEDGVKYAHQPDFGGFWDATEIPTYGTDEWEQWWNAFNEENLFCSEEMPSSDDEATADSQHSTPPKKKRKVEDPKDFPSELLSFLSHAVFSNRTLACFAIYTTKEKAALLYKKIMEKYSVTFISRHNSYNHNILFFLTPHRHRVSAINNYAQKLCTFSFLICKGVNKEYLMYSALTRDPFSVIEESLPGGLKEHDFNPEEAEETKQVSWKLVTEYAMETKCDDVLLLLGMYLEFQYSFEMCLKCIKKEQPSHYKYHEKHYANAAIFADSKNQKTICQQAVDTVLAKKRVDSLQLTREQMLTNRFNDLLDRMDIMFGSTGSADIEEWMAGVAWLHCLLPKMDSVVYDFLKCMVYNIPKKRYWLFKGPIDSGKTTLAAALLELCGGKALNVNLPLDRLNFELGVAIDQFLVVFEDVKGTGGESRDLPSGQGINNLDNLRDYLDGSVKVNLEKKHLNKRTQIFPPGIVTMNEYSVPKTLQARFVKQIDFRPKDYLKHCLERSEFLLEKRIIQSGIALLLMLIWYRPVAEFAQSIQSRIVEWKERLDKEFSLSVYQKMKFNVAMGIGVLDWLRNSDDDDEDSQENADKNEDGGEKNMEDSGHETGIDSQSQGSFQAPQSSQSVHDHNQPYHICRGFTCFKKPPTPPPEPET
For assay [16], the target named is Nonstructural protein 1 (Influenza A virus, UniProt Q194T2). The format is functional, Influenza A virus (A/California/07/2009(H1N1)).
Sequence of Nonstructural protein 1 (Q194T2 whole entry): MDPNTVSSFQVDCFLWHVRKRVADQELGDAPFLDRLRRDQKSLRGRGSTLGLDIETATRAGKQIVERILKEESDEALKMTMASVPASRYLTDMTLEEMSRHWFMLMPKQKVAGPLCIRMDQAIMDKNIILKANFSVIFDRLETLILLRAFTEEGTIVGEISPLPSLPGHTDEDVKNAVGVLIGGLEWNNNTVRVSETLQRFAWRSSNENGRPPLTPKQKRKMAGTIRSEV

Take `CCOC(=O)c1sc2c(c1C)c(=O)n(Cc1ccccc1)c(=O)n2CCN(C)C`: the EC50 in assay [1] is < 100 nM (active); in [2], > 60 µM (not active); in [3] it was 62 nM (active). For `Cc1cc(O)nc(SCC(=O)C23CC4CC(CC(C4)C2)C3)c1C#N`, the IC50 in assay [4] is > 100 µM (active). Turning to `Cc1c(Cl)cnc(NC(=O)COC(=O)CCC(=O)c2cccs2)c1Cl`, the concentration for half-maximal inhibition (IC50) in [5] was 2.77 µM (active). As to `COC(=O)Nc1ccc(S(=O)(=O)NNC(=O)c2c(O)c3ccccc3n(C)c2=O)cc1`, the IC50 in assay [6] is > 94.1 µM (inactive); in assay [7] it was 13.2 µM (active). On to `N#Cc1ccc(Sc2nc3ccccc3[nH]2)cc1C#N`, for which the IC50 in assay [8] is 2.7 µM (active); in assay [9] it was 2.3 µM (active). `O=C(CN1C(=O)C2C3CCC(C3)C2C1=O)Oc1ccc2ccccc2c1` (stereo not given): the IC50 in assay [4] is > 100 µM (active). As for `Cc1nc(-c2cnn(-c3ccccc3)c2)c2cc(C)oc2n1`, in assay [5], the IC50 is > 50 µM (not active). In the case of `CCOc1ccc(NC2C=CS(=O)(=O)C2)cc1` (stereo not given), the IC50 in assay [4] is > 100 µM (active). As to `O=C(O)c1ccc(Cl)c(S(=O)(=O)Nc2ccc3c[nH]nc3c2)c1`, in [10], the AC50 is 11.1 µM (active). For `C=C(C)COc1ccc(-c2n[nH]cc2Oc2ccccc2OCC)c(O)c1`, in assay [11], the 50% inhibitory concentration (IC50) is recorded as 11.7 µM (not active).

In the case of `COc1ccc2sc(N(CCCN(C)C)C(=O)c3ccc(S(=O)(=O)N(C)C4CCCCC4)cc3)nc2c1`, the EC50 is < 100 nM (active) in [1], > 60 µM (not active) in assay [2] and 393 nM (active) in assay [3].

Turning to `COC(=O)Cc1ccc(NC(=O)c2ccc(Br)o2)cc1`, the concentration for half-maximal inhibition (IC50) in assay [4] was > 100 µM (active). With `CCc1ccc(S(=O)(=O)NCc2cn3c(C)csc3n2)s1`, the IC50 in assay [11] is on record as 6.07 µM (not active). For the compound `Cc1ccnc(NC(=O)c2ccc([N+](=O)[O-])o2)c1`, the half-inhibitory concentration (IC50) in assay [5] is recorded as > 50 µM (not active). For `O=C(O)c1cc(Nc2cc(Cl)c3nonc3c2[N+](=O)[O-])ccc1O`, the figures for the AC50 in assay [12] and in assay [10] were 1.17 µM (active) and 14.6 µM (active), respectively. The 50% inhibitory concentration (IC50) in [13] was 8.55 µM (active); in [15] it was 40.4 µM (active). Also, the EC50 in [14] was 1.33 µM (active). In the case of `CCN(CC)c1ccc(CN(C)CCc2ccc(OC)c(OC)c2)cc1`, the figures for the EC50 in [1], in assay [2] and in assay [3] were < 100 nM (active), > 60 µM (not active) and < 4 nM (active), respectively. Turning to `CC(C)(C)C1CCc2c(sc(NC(=O)CSc3nnc(-c4ccccc4)o3)c2C#N)C1` (stereo not given), the IC50 in assay [4] was > 100 µM (active). In the case of `COc1ccc(Cl)cc1N(CC(=O)N/N=C/c1ccc(OCC(N)=O)cc1)S(C)(=O)=O`, in assay [10], the concentration at half-maximal activity (AC50) was 9 µM (active).

Consider `CC(C)(C)c1csc(N/N=C/c2cccnc2)n1`, for which the IC50 in [11] was 18.6 µM (not active). In the case of `COc1cc(O)c(/C=N/NC(=O)c2ccncc2)c(OC)c1[N+](=O)[O-]`, the 50% inhibitory concentration (IC50) in [16] was 8.82 µM (active); in assay [6] it was > 94.1 µM (inactive).

On to `COc1ccc([N+](=O)[O-])cc1NC(=O)Nc1ccccc1`, for which the IC50 in [8] is 19.9 µM (active); in assay [9] it was 15.5 µM (active).
